From patent US8921563B2, “1-[(4-hydroxypiperidin-4-yl)methyl]pyridin-2(1H)-one derivatives, preparation methods and uses thereof” (Institue of Pharmacology and Toxicology Academy of Military …, priority 2010, dated 2014)

Columns and labels:
[1] = target: T1, 5-HT1A receptor (Rattus norvegicus, UniProt P19327); assay: Screening: competitive binding test to 5-HT1A receptor using [3H]-8-OH-DPAT, rat hippocampi membrane protein; settings: [3H]-8-OH-DPAT 1.28 nM; for inhibition at 10 µM / inhibition at 0.1 µM: read-out: Inhibition percent (I %), competitive binding to 5-HT1A receptor
T1 construct: the content of 5-HT1A receptor extracted from rat hippocampi was 5.5 mg/ml; from tissue; host or cells: Wistar rat hippocampus, membrane preparation
T1 sequence (P19327 1-422): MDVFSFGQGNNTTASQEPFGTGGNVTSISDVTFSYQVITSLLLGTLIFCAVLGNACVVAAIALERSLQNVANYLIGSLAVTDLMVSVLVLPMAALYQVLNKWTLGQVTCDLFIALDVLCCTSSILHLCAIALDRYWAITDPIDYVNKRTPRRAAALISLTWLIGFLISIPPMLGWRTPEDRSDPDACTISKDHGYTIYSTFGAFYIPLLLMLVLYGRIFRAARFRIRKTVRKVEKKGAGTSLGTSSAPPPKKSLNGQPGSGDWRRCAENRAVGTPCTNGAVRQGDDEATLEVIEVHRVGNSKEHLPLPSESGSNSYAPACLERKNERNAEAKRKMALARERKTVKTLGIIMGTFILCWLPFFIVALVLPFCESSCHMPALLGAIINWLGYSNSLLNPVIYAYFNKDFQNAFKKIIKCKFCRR
Procedure: 1.4.1 Screening of YL Series Compounds
(1) Preparation of Membrane Proteins in Rat Hippocampi
Wister rats, 220-260 g, female and male, were sacrificed by decapitation and hippocampis were rapidly separated, weighed and to which homogenized in 10 times volume of Tris-HCl buffer solution (50 mM Tris-HCl, 5 mM MgCl2,1 mM EDTA, 0.5% (WN) BSA, 1 mM PMSF, 3 μg/ml proteinase inhibitor, 0.1% NaN3, 0.32M sucrose, pH 7.4) at 15,000 rpm for 30 s, total 5 times. The homogenate was centrifuged under 1000×g for 10 minutes and the supernatant was then centrifuged under 39000×g for 10 minutes. The precipitate was collected, and resuspended with 10 times volume of Tris-HCl buffer solution (pH 7.4) relative to the original weight, then centrifuged under 39000×g for 10 minutes. The precipitate was washed with the same buffer solution, centrifuged under 39000×g for 10 minutes and the precipitate was suspended with the above buffer solution. After sub-packaged (the whole operation procedures were performed under ice bath), the product was stored at −80° C. The protein concentration was measured by Lowrry method.
1) In the 5-HT1A receptor binding test, tubes are firstly placed under reaction condition of 25° C.
2) To all of the tubes, the receptor proteins extracted from rat hippocampi in an amount of 100 μg were added in sequence.
4) To the test tubes, 30 μl of the compound in corresponding concentrations (used for screening: 10^−5, 10^−7, 10^−9M) was added in sequence.
6) Tris-HCl buffer solution (50 mM Tris-HCl, 1 mM EDTA, 5 mM MgCl2, 0.1 mM PMSF, 0.1% NaN3, pH 7.4) was supplied to all of the tubes to reach a volume of 300 μl.
7) The reaction was performed at 25° C. for 1 h.
8) Then samples were applied to 49-type glass fibre filter, vacuum suction filtered, then washed three times with 2 ml ice-cold Tris-HCl buffer solution (50 mM Tris-HCl buffer solution, 1 mM EDTA, 5 mM MgCl2, 1 mM PMSF, 0.1% NaN3, 3 μg/ml proteinase inhibitor, pH 7.4). […] The radio-activity was measured by a scintillation counter.

[2] = target: T2, 5-HT transport protein (SERT) (Rattus norvegicus, UniProt P31652); assay: Screening: competitive binding test to SERT using [3H]-citalopram; settings: [3H]-citalopram 1 nM; for inhibition at 10 µM / inhibition at 0.1 µM: read-out: Inhibition percent (I %), competitive binding to 5-HT transport protein (SERT)
T2 construct: Preparation of Membrane Proteins in Rat Hippocampi; from tissue; host or cells: Wistar rat hippocampus
Procedure: The homogenate was centrifuged under 1000×g for 10 minutes and the supernatant was then centrifuged under 39000×g for 10 minutes. The precipitate was collected, and resuspended with 10 times volume of Tris-HCl buffer solution (pH 7.4) relative to the original weight, then centrifuged under 39000×g for 10 minutes. The precipitate was washed with the same buffer solution, centrifuged under 39000×g for 10 minutes and the precipitate was suspended with the above buffer solution. After sub-packaged (the whole operation procedures were performed under ice bath), the product was stored at −80° C. The protein concentration was measured by Lowrry method.

[3] = system: mice; assay: Hole board test in mice; type: in vivo; settings: 10 mg/kg p.o., long-term (23 days)
Procedure: Hole board test, an animal model of anxiety established by Boissie, et al (1962), was performed in mice.
1) Experimental device: a transparent Perspex box (40×40×27 cm) which had four holes (3 cm in diameter, 1.8 cm in depth) in the floor. The distance of each hole center to its closest wall is 10 cm.
2) Experimental method: Male Kunming mice weighing 20-25 g. The mice were intragastrically administered with YL-0911 or vehicle (distilled water). After 23 days, the mice were placed at center of the hole board with their backs facing to the observer. A head dip was scored if the animal's head dipped into the hole at least up to eye level The latency to the first head-dip, the number of head-dips and the time spent in head-dipping were recorded for 5 min.

[4] = system: mice; assay: Tail suspension test in mice; type: in vivo; settings: 30 mg/kg p.o., acute, 1 h before test
Text: 2.1.2 Tail Suspension Test in Mice
Tail suspension test in mice is an acute behavioral despair model established by Stem, et al. (1985).
1) Experimental device: an experimental frame with spacing boards which dividing the experimental frame into 2 experimental chambers (20×25×30 cm). A clamp is mounted on a through cross rod in the chamber for clamping mice tail so as to suspend the mice.
2) Experimental method: Male Kunming mice weighing 20-25 g. The mice were intragastrically administered with YL-0911 or vehicle (distilled water). After 1 h, wrap adhesive tape around the mouse's tail in position three quarters of the distance from the base of the tail and then suspend the animals by passing the suspension hook through the adhesive tape 5 cm above the table. The duration of immobility in the last 4 min of total 6 min test was recorded.

[5] = system: mice; assay: Forced swim test in mice; type: in vivo; settings: 40 mg/kg p.o., acute, 1 h before test
Procedure: 2.1.1 Forced Swim Test in Mice
Forced swim test in mice is an acute behavioral despair model established by Porsolt, et al.
(1) Experimental device: a glass cylinder (diameter 13 cm, height 24 cm, containing 10 cm of water maintained at 25).
(2) Experimental method: Male Kunming mice weighing 20-25 g. The mice were gently put in the water 1 h after intragastrically drug administration, and then the duration of immobility in the last 4 min of total 6 min test was recorded.

T2 sequence (P31652 whole entry): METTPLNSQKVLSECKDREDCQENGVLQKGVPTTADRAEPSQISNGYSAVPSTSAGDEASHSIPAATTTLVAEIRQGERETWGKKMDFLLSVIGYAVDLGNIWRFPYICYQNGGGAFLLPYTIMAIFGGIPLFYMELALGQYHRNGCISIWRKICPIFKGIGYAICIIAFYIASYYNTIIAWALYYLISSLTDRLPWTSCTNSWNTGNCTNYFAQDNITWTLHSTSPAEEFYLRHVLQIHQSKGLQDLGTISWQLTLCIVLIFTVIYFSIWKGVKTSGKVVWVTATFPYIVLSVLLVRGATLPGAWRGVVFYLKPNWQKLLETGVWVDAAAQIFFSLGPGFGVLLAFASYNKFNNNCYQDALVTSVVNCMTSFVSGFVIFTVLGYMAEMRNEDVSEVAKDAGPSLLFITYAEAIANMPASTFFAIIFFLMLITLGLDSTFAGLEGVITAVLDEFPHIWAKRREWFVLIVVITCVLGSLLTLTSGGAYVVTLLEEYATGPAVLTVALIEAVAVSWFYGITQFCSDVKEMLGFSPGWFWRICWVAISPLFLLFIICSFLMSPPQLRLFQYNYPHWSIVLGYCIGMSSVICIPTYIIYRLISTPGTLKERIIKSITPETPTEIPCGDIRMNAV

SMILES	inhibition at 10 µM ([1]; compound 10^-5 mol/L) [%]	inhibition at 0.1 µM ([1]; compound 10^-7 mol/L) [%]	Inhibition percent (I %), competitive binding to 5-HT1A receptor ([1]; compound 10^-5 mol/L) [%]	Inhibition percent (I %), competitive binding to 5-HT1A receptor ([1]; compound 10^-7 mol/L) [%]	further results
O=c1ccccn1CC1(O)CCN(Cc2ccccc2F)CC1 [Compound 2, 1-{[1-(2-fluorobenzyl)-4-hydroxypiperidin-4-yl]-methyl}-pyridin-2(1H)-one]	100	58	–	–	inhibition at 10 µM ([2]; compound 10^-5 mol/L): 100%; inhibition at 0.1 µM ([2]; compound 10^-7 mol/L): 50%
O=c1ccccn1CC1(O)CCN(Cc2ccc(F)cc2)CC1 [Compound 3, 1-{[1-(4-fluorobenzyl)-4-hydroxypiperidin-4-yl]-methyl}-pyridin-2(1H)-one]	100	10	–	–	–
O=c1ccccn1CC1(O)CCN(Cc2ccc(F)cc2F)CC1 [Compound 4, 1-{[1-(2,4-difluorobenzyl)-4-hydroxypiperidin-4-yl]-methyl}-pyridin-2(1H)-p-one]	–	–	100	57	Inhibition percent (I %), competitive binding to 5-HT transport protein (SERT) ([2]; compound 10^-5 mol/L): 100%; Inhibition percent (I %), competitive binding to 5-HT transport protein (SERT) ([2]; compound 10^-7 mol/L): 58%
O=c1ccc(Br)cn1CC1(O)CCN(Cc2ccccc2)CC1 [Compound 5, 5-bromo-1-[(1-benzyl-4-hydroxypiperidin-4-yl)-methyl]-pyridin-2(1H)-one]	94	62	–	–	inhibition at 10 µM ([2]; compound 10^-5 mol/L): 100%; inhibition at 0.1 µM ([2]; compound 10^-7 mol/L): 77%
CNCCC(Oc1ccc(C(F)(F)F)cc1)c1ccccc1 (centres unmarked) [Fluoxetine, fluoxetine, reference compound]	–	–	–	–	the latency to the first head-dip [3]: 42.70 ± 9.43 s; Number of Head dips ([3]; 5 min): 9.60 ± 1.49; Time of head dipping ([3]; 5 min): 6.31 ± 1.03 s; Immobility time (s), tail suspension test [4]: 56.2 ± 41.7 s
CN(C)CCCN1c2ccccc2CCc2ccccc21 [Imipramine, reference compound]	–	–	–	–	Immobility time (s), forced swim test [5]: 88.0 ± 58.2 s

Second part, led by results:

inhibition at 10 µM ([1]; compound 10^-5 mol/L) [%]	inhibition at 0.1 µM ([1]; compound 10^-7 mol/L) [%]	Inhibition percent (I %), competitive binding to 5-HT1A receptor ([1]; compound 10^-5 mol/L) [%]	Inhibition percent (I %), competitive binding to 5-HT1A receptor ([1]; compound 10^-7 mol/L) [%]	SMILES	further results
100	74	–	–	O=c1ccc(Br)cn1CC1(O)CCN(Cc2ccccc2F)CC1 [Compound 6, 5-bromo-1-{[1-(2-fluorobenzyl)-4-hydroxypiperidin-4-yl]-methyl}-pyridin-2(1H)-one]	inhibition at 10 µM ([2]; compound 10^-5 mol/L): 87%; inhibition at 0.1 µM ([2]; compound 10^-7 mol/L): 44%
–	–	59	2	O=c1ccc(Br)cn1CC1(O)CCN(Cc2ccc(F)cc2)CC1 [Compound 7, 5-bromo-1-{[1-(4-fluorobenzyl)-4-hydroxypiperidin-4-yl]-methyl}-pyridin-2(M)-one]	–
–	–	42	19	O=c1ccc(Br)cn1CC1(O)CCN(Cc2ccc(F)cc2F)CC1 [Compound 8, 5-bromo-1-{[1-(2,4-fluorobenzyl)-4-hydroxypiperidin-4-yl]-methyl}-pyridin-2(M)-one]	–
–	–	100	25	Cc1ccn(CC2(O)CCN(Cc3ccccc3)CC2)c(=O)c1 [Compound 9, 1-[(1-benzyl-4-hydroxypiperidin-4-yl)-methyl]-4-methylpyridin-2(M)-one]	–
–	–	76	37	Cc1ccn(CC2(O)CCN(Cc3ccccc3F)CC2)c(=O)c1 [Compound 10, 1-{[1-(2-fluorobenzyl)-4-hydroxypiperidin-4-yl]-methyl}-4-methylpyridin-2(M)-one]	–
–	–	57	14	Cc1ccn(CC2(O)CCN(Cc3ccc(F)cc3)CC2)c(=O)c1 [Compound 11, 1-{[1-(4-fluorobenzyl)-4-hydroxypiperidin-4-yl]-methyl}-4-methylpyridin-2(M)-one]	–
–	–	61	30	Cc1ccn(CC2(O)CCN(Cc3ccc(F)cc3F)CC2)c(=O)c1 [Compound 12, 1-{[1-(2,4-difluorobenzyl)-4-hydroxypiperidin-4-yl]-methyl}-4-methylpyridin-2(M)-one]	–
